Molecules are shown by their SMILES.

What is called IC50 is the concentration that gives 50% inhibition.

One assay addresses T1, Human BACE1 (Homo sapiens, UniProt P56817).
T1 construct: the soluble part of the human β-Secretase1 (AA1-AA460) was cloned using the BACE1(1-460)-(AVT)-Fc-pGEN-IRES-neo mammalian expression vector; AVT linker (C); made in house
The experiment in a line: Diluted TR-FRET assay. It counts as biochemical. As to conditions: 50 times less enzyme, 6.5 h reaction time at r.t.; read-out: IC50 BACE1 (dil. TR-FRET). Here is the method:
(§1) The β-secretase enzyme used in the TR-FRET was prepared as follows:
(§2) Human BACE1: the cDNA for the soluble part of the human β-Secretase1 (AA1-AA460) was cloned using the BACE1(1-460)-(AVT)-Fc-pGEN-IRES-neo mammalian expression vector. The gene was fused to the Fe domain of IgG1 (affinity tag) and stably cloned into HEK 293 cells. […]
A multidrop Combi was used for the liquid handling. Enzyme (7 μL) was added to the compound plate (containing 0.8 μL of compound in dimethylsulphoxide). The plate was incubated for 10 minutes. […] The reaction was stopped with the addition of Stop solution (5.5 μL, NaOAC, pH 9). Fluorescence was measured on a Pherastar plate reader using HTRF module. […] 5 reference inhibitors with different affinities were used at all screen occasions in dose response.

For another assay, the system named is SH-SY5Y cells. The experiment in a line: sAPPβ release assay. As to conditions: Homo sapiens, SH-SY5Y, read-out: IC50 Cell (sAPPβ release, nM), SH-SY5Y cells, compounds incubated 16-17 h.
For the next assay, the target named is T2, Human BACE2 (Homo sapiens, UniProt Q9Y5Z0).
T2 construct: the soluble part of the human β-Secretase2 (AA1-AA473) was cloned using BACE2(1-473)-(AVT)-Fc-pDEST12.2 mammalian expression vector; AVT linker (C); made in house
T2 sequence (Q9Y5Z0 21-473): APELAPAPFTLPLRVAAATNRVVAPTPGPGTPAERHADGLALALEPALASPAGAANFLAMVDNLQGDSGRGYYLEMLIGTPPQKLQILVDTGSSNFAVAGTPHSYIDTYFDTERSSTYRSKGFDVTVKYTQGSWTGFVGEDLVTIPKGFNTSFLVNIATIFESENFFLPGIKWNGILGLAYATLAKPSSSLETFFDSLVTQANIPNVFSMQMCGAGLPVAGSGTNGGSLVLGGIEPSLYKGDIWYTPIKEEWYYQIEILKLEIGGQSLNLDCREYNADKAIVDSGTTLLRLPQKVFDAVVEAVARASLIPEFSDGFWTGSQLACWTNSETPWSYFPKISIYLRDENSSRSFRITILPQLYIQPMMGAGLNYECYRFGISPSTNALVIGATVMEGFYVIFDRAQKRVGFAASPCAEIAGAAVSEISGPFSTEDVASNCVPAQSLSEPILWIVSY
The experiment in a line: TR-FRET assay. It counts as biochemical. The note with it: enzyme 2.7 μg/mL, substrate 100 nM, pH4.5. As to the method:
as §1, §2
A multidrop Combi was used for the liquid handling. Enzyme (7 μL) was added to the compound plate (containing 0.8 μL of compound in dimethylsulphoxide). The plate was incubated for 10 minutes. Substrate (8 μL) was then added, and the reaction proceeded for 17 minutes at r.t. The reaction was stopped with the addition of Stop solution (5.5 μL, NaOAC, pH 9). Fluorescence was measured on a Pherastar plate reader using HTRF module. […] 5 reference inhibitors with different affinities were used at all screen occasions in dose response.
On the technique in general: Time-resolved FRET reads energy transfer from a long-lived donor to a nearby acceptor.

T1 sequence (P56817 22-460): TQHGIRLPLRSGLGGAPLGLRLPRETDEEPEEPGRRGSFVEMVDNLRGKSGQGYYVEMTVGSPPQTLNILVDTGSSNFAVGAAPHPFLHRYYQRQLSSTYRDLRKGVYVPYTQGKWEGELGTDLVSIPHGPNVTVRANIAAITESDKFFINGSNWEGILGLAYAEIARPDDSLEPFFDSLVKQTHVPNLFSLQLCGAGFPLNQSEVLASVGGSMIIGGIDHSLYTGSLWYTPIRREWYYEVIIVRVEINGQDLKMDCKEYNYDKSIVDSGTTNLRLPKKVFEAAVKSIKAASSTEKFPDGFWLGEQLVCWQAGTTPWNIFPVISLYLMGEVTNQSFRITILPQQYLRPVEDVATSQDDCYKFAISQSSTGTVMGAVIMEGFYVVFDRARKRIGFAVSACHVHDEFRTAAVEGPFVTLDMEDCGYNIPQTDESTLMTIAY

Consider `[2H]C1([2H])OC(N)=N[C@]12c1cc(-c3cncc(C4CC4)c3)ccc1C[C@@]21CC[C@H](OC)[C@@H](C)C1` [Compound 6, (1S,1′R,3S,4S)-6′-(5-cyclopropylpyridin-3-yl)-4-methoxy-3-methyl-3′H,5″H-dispiro[cyclohexane-1,2′-indene-1′,4″-oxazol]-5″,5″-d2-2″-amine], for which the figures for the IC50 on Human BACE1, with SH-SY5Y cells and at Human BACE2 were 54 nM, 2.2 nM and 99 nM, respectively.

Turning to `[2H]C1([2H])OC(N)=N[C@]12c1cc(-c3cncc(Cl)c3)ccc1C[C@]21CC[C@@H](OC)[C@H](C)C1` [Compound 7, (1R,1′R,3R,4R)-6′-(5-chloropyridin-3-yl)-4-methoxy-3-methyl-3′H,5″H-dispiro[cyclohexane-1,2′-indene-1′,4″-oxazol]-5″,5″-d2-2″-amine], the IC50 was found to be 11.7 nM on Human BACE1, 0.45 nM with SH-SY5Y cells and 22.7 nM at Human BACE2.

Consider `[2H]C1([2H])OC(N)=N[C@]12c1cc(-c3cccnc3)ccc1C[C@@]21CC[C@H](OC)[C@@H](C)C1` [Compound 8, (1S,1′R,3S,4S)-4-methoxy-3-methyl-6′-(pyridin-3-yl)-3′H,5″H-dispiro[cyclohexane-1,2′-indene-1′,4″-oxazol]-5″,5″-d2-2″-amine], for which the IC50 is 54.7 nM on Human BACE1, 0.76 nM with SH-SY5Y cells and 716 nM against Human BACE2.

Turning to `CO[C@H]1CC[C@]2(CC1)Cc1ccc(C#CC(C)C)cc1C21COC(N)=N1` (stereo partly drawn) [Compound 12, (1r,4r)-4-methoxy-6′-(3-methylbut-1-yn-1-yl)-3′H,5″H-dispiro[cyclohexane-1,2′-indene-1′,4″-oxazol]-2″-amine], the IC50 on Human BACE1 is 135 nM; in the assay with SH-SY5Y cells, 5.9 nM; against Human BACE2, 128 nM.

On to `[2H]C1([2H])OC(N)=N[C@]12c1cc(-c3cccnc3)ccc1C[C@]21CC[C@@H](OC)[C@H](C)C1` [Compound 13, (1R,1′R,3R,4R)-4-methoxy-3-methyl-6′-(pyridin-3-yl)-3′H,5″H-dispiro[cyclohexane-1,2′-indene-1′,4″-oxazol]-5″,5″-d2-2″-amine], for which the IC50 at Human BACE1 is 161 nM; with SH-SY5Y cells it was 1.7 nM; on Human BACE2 it was 217 nM.

Consider `CC#Cc1cncc(-c2ccc3c(c2)C2(COC(N)=N2)[C@]2(CC[C@H](OC)CC2)C3)c1` (stereo partly drawn) [Compound 15, (1r,4r)-4-methoxy-6′-(5-(prop-1-yn-1-yl)pyridin-3-yl)-3′H,5″H-dispiro[cyclohexane-1,2′-indene-1′,4″-oxazol]-2″-amine], for which the IC50 at Human BACE1 was found to be 16 nM; with SH-SY5Y cells it was 1.1 nM; against Human BACE2, 23 nM.

On to `[2H]C1([2H])OC(N)=NC12c1cc(-c3cncc(Cl)c3)ccc1C[C@]21CC[C@@H](OC)CC1` (stereo partly drawn) [Compound 16, (1r,4r)-6′-(5-chloropyridin-3-yl)-4-methoxy-3′H,5″H-dispiro[cyclohexane-1,2′-indene-1′,4″-oxazol]-5″,5″-d2-2″-amine], for which the IC50 on Human BACE1 was 128 nM; in the assay with SH-SY5Y cells it was 3.8 nM; at Human BACE2, 105 nM.

Take `[2H]C1([2H])OC(N)=N[C@]12c1cc(-c3cc(F)cc(C#N)c3)ccc1C[C@]21CC[C@@H](OC)[C@H](C)C1` [Compound 17, 3-((1R,1′R,3R,4R)-2″-amino-4-methoxy-3-methyl-3′H,5″H-dispiro[cyclohexane-1,2′-indene-1′,4″-oxazol]-6′-yl-5″,5″-d2)-5-fluorobenzonitrile]: the IC50 amounted to 46.7 nM on Human BACE1, 2.1 nM with SH-SY5Y cells and 30.2 nM against Human BACE2.

`[2H]C1([2H])OC(N)=N[C@]12c1cc(-c3cc(F)cc(C#N)c3)ccc1C[C@@]21CC[C@H](OC)[C@@H](C)C1` [Compound 19, 3-((1S,1′R,3S,4S)-2″-amino-4-methoxy-3-methyl-3′H,5″H-dispiro[cyclohexane-1,2′-indene-1′,4″-oxazol]-6′-yl-5″,5″-d2)-5-fluorobenzonitrile]: the IC50 on Human BACE1 is 244 nM; with SH-SY5Y cells, 2 nM; against Human BACE2 it was 43.6 nM.

With `[2H]C1([2H])OC(N)=N[C@]12c1cc(-c3cncc(C)c3)ccc1C[C@]21CC[C@@H](OC)[C@H](C)C1` [Compound 20, (1R,1′R,3R,4R)-4-methoxy-3-methyl-6′-(5-methylpyridin-3-yl)-3′H,5″H-dispiro[cyclohexane-1,2′-indene-1′,4″-oxazol]-5″,5″-d2-2″-amine], the IC50 on Human BACE1 is 143 nM; in the assay with SH-SY5Y cells, 2.9 nM; at Human BACE2, 186 nM.

Regarding `[2H]C1([2H])OC(N)=NC12c1cc(-c3cncc(C)c3)ccc1C[C@@]21CC[C@H](OC)[C@@H](C)C1` (stereo partly drawn) [Compound 21, (1S,3S,4S)-4-methoxy-3-methyl-6′-(5-methylpyridin-3-yl)-3′H,5″H-dispiro[cyclohexane-1,2′-indene-1′,4″-oxazol]-5″,5″-d2-2″-amine], the results for the IC50 on Human BACE1, in the assay on SH-SY5Y cells and on Human BACE2 were 67 nM, 1.6 nM and 256 nM, respectively.

In the case of `[2H]C1([2H])OC(N)=N[C@]12c1cc(-c3cc(C#N)cc(OC)c3)ccc1C[C@@]21CC[C@H](OC)[C@@H](C)C1` [Compound 23, 3-((1S,1′R,3S,4S)-2″-amino-4-methoxy-3-methyl-3′H,5″H-dispiro[cyclohexane-1,2′-indene-1′,4″-oxazol]-6′-yl-5″,5″-d2)-5-methoxybenzonitrile], the IC50 on Human BACE1 amounted to 7.3 nM; with SH-SY5Y cells it was 1.5 nM; on Human BACE2, 21.4 nM.

Regarding `[2H]C1([2H])OC(N)=N[C@]12c1cc(-c3cc(C#N)cc(OC)c3)ccc1C[C@]21CC[C@@H](OC)[C@H](C)C1` [Compound 24, 3-((1R,1′R,3R,4R)-2″-amino-4-methoxy-3-methyl-3′H,5″H-dispiro[cyclohexane-1,2′-indene-1′,4″-oxazol]-6′-yl-5″,5″-d2)-5-methoxybenzonitrile], the figures for the IC50 on Human BACE1, with SH-SY5Y cells and against Human BACE2 were 18 nM, 3.2 nM and 18 nM, respectively.

Take `[2H]C1([2H])OC(N)=N[C@]12c1cc(-c3cncc(C(F)(F)F)c3)ccc1C[C@@]21CC[C@H](OC)[C@@H](C)C1` [Compound 26]: the results for the IC50 at Human BACE1, in the assay on SH-SY5Y cells and against Human BACE2 were 19.6 nM, 2.6 nM and 78.4 nM, respectively.

In the case of `[2H]C1([2H])OC(N)=N[C@]12c1cc(-c3cccc(Cl)c3)ccc1C[C@@]21CC[C@H](OC)[C@@H](C)C1` [Compound 27], the IC50 came out at 12 nM at Human BACE1, 2.8 nM in the assay with SH-SY5Y cells and 24.7 nM at Human BACE2.

On to `[2H]C1([2H])OC(N)=N[C@]12c1cc(-c3cncc(C)c3)ccc1C[C@@]21CC[C@H](OC)[C@@H](C)C1` [Compound 28], for which the IC50 was 67 nM at Human BACE1, 1.6 nM in the assay with SH-SY5Y cells and 255 nM on Human BACE2.

Take `[2H]C1([2H])OC(N)=N[C@]12c1cc(-c3cncc(C(F)(F)F)c3)ccc1C[C@]21CC[C@@H](OC)[C@H](C)C1` [Compound 29, (1R,1′R,3R,4R)-4-methoxy-3-methyl-6′-(5-(trifluoromethyl)pyridin-3-yl)-3′H,5″H-dispiro[cyclohexane-1,2′-indene-1′,4″-oxazol]-5″,5″-d2-2″-amine]: the IC50 at Human BACE1 turned out to be 55.7 nM; with SH-SY5Y cells it was 2.6 nM; against Human BACE2, 79.2 nM.

Consider `CO[C@H]1[C@H](C)C[C@@]2(Cc3ccc(-c4cncc(C#N)c4)cc3[C@@]23COC(N)=N3)C[C@@H]1C` [Compound 31, 5-((1r,3R,4r,5S)-2″-amino-4-methoxy-3,5-dimethyl-3′H,5″H-dispiro[cyclohexane-1,2′-indene-1′,4″-oxazol]-6′-yl)nicotinonitrile], for which the IC50 on Human BACE1 came out at 24.3 nM; with SH-SY5Y cells it was 2.4 nM; on Human BACE2, 90.8 nM.

Consider `[2H]C1([2H])OC(N)=NC12c1cc(-c3cc(C#N)cc(OC)c3)ccc1C[C@@]21C[C@@H](C)[C@H](OC)[C@@H](C)C1` (stereo partly drawn) [Compound 32, 3-((1r,3R,4r,5S)-2″-amino-4-methoxy-3,5-dimethyl-3′H,5″H-dispiro[cyclohexane-1,2′-indene-1′,4″-oxazol]-6′-yl-5″,5″-d2)-5-methoxybenzonitrile], for which the IC50 on Human BACE1 amounted to 7.3 nM; in the assay with SH-SY5Y cells, 2.8 nM; against Human BACE2, 26.2 nM.
